The target in data set [1] is Rho-associated protein kinase 2 (Homo sapiens, UniProt O75116). In words: Inhibition of N-terminal GST-tagged human recombinant wild type ROCK2 (1 to 553 residues) expressed in baculovirus-infected Sf21 cells by HTRF KinEASE assay. For orientation: TR-FRET usually uses a lanthanide donor and a delayed reading to cut background.
For data set [2], the system named is MDA-MB-231. Description: Induction of immunogenic cell death-associated DAMP release in human MDA-MB-231 cells assessed as increase in CRT expression level at 1 to 10 uM incubated for 24 hrs by western blot analysis. Type of data set: functional, cell-based. The settings on record: dose 1-10 µM. Background: In western blotting, separated proteins are transferred to a membrane and probed.

Data set [3] deals with 4T1. Description: Antitumor immunity against mouse 4T1 cells implanted in Balb/c mouse assessed as increase in CD86+ dendritic cells in tumor tissue at 25 mg/kg, po administered daily for 15 days by immunohistochemistry. It is filed as functional, organism-based. The settings on record: time 15.0 day.
Data set [4] relates to MDA-MB-231. Description: Cytotoxicity against human MDA-MB-231 cells assessed as reduction in cell viability incubated for 72 hrs by SRB assay. It is filed as functional, cell-based. The settings on record: MDA-MB-231, 72 h. For orientation: Sulforhodamine B stains cellular protein and so reports cell mass.
Data set [5] in a line: Tmax in Balb/c mouse at 1 mg/kg, iv measured for 24 hrs by LC-MS/MS analysis. It is filed as ADME, organism-based. The settings on record: in vivo.
The nature of data set [6]: Toxicity against Balb/c mouse implanted with mouse 4T1 cells assessed as effect on morphological changes in kidneys at 25 to 50 mg/kg, po administered daily for 15 days by Hematoxylin-Eosin staining based analysis. It is filed as organism-based. The settings on record: in vivo, 360 h, dose 25-50 mg/kg, time 15 day.
The nature of data set [7]: Toxicity against Balb/c mouse implanted with mouse 4T1 cells assessed as effect on morphological changes in heart at 25 to 50 mg/kg, po administered daily for 15 days by Hematoxylin-Eosin staining based analysis. The settings on record: in vivo, 360 h, dose 25-50 mg/kg, time 15 day. It is filed as organism-based.
Data set [8] can be described thus: Aqueous solubility of the compound in aqueous buffer at pH 7.4. It is filed as physicochemical.
Data set [9] concerns 4T1. In words: Antitumor immunity against mouse 4T1 cells implanted in Balb/c mouse assessed as increase in CD8+ T cells in tumor tissue at 25 mg/kg, po administered daily for 15 days by flow cytometry. It is filed as functional, organism-based. The settings on record: time 15.0 day.
A short description of data set [10]: Oral bioavailability in Balb/c mouse at 50 mg/kg measured for 24 hrs by LC-MS/MS analysis. Type of data set: ADME, organism-based. The settings on record: in vivo.
Data set [11] is described as follows: Half-life in Balb/c mouse at 50 mg/kg, po measured for 24 hrs by LC-MS/MS analysis. Type of data set: ADME, organism-based. The settings on record: in vivo.
Data set [12] in a line: Toxicity against Balb/c mouse implanted with mouse 4T1 cells assessed as effect on morphological changes in liver at 25 to 50 mg/kg, po administered daily for 15 days by Hematoxylin-Eosin staining based analysis. Type of data set: organism-based. The settings on record: in vivo, 360 h, dose 25-50 mg/kg, time 15 day.
The nature of data set [13]: Lipophilicity, log D of the compound at pH 7.4. It is filed as physicochemical. The settings on record: buffer.
Data set [14] has as its target T1, Polyamine deacetylase HDAC10 (Homo sapiens, UniProt Q969S8).
T1 sequence (Q969S8 whole entry): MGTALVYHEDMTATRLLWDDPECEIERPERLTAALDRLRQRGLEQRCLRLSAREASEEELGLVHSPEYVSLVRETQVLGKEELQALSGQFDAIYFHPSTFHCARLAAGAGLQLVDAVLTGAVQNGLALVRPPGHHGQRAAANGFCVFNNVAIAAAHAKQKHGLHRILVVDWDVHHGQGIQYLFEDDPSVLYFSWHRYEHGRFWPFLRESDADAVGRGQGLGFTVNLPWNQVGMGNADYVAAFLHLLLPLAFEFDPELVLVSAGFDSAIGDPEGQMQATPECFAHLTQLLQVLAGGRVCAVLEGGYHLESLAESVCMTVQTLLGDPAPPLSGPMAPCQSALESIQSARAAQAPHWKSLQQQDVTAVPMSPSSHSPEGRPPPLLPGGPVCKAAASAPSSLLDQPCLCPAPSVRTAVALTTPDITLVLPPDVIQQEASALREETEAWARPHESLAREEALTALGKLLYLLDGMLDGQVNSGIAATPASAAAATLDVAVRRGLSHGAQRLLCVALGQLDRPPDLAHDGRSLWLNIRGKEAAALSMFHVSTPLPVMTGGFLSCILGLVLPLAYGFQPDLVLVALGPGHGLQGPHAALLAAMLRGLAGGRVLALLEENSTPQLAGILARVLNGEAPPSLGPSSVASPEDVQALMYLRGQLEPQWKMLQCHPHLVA
Description: Inhibition of HDAC10 (unknown origin) using Ac-Arg-His-Lys(Ac)-Lys(Ac)-AMC as substrate preincubated for 5 mins followed by substrate addition for 30 mins and measured following trypsin addition for 30 mins by fluorescence based analysis.

The next data set has as its target T2, Histone deacetylase 11 (Homo sapiens, UniProt Q96DB2).
T2 sequence (Q96DB2 whole entry): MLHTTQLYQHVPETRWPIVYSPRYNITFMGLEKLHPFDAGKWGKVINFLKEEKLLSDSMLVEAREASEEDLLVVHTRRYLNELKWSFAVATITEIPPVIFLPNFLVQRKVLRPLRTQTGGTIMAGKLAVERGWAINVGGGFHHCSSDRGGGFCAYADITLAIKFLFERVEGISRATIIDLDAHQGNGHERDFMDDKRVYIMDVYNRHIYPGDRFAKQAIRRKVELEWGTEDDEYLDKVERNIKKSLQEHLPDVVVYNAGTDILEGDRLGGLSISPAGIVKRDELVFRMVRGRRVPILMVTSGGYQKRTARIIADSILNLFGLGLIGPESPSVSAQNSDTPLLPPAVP
Description: Inhibition of HDAC11 (unknown origin) using Ac-Leu-Gly-Lys(Ac)-AMC as substrate preincubated for 5 mins followed by substrate addition for 30 mins and measured following trypsin addition for 30 mins by fluorescence based analysis.

Data set [15] relates to MDA-MB-231. In words: Induction of immunogenic cell death-associated DAMP release in human MDA-MB-231 cells assessed as decrease in HMGB1 expression level at 1 to 10 uM incubated for 24 hrs by western blot analysis. The settings on record: dose 1-10 µM. Type of data set: functional, cell-based.
Data set [16] relates to 4T1. Description: Antitumor activity against mouse 4T1 cells implanted in Balb/c mouse assessed as inhibition of tumor growth rate at 25 mg/kg, po administered daily for 15 days. The settings on record: 4T1, 360 h, time 15 day, read-out: TGI. It is filed as functional.
Data set [17] can be described thus: Tmax in Balb/c mouse at 50 mg/kg, po measured for 24 hrs by LC-MS/MS analysis. It is filed as ADME, organism-based. The settings on record: in vivo.

Values after ≈ are worked out from the molar mass of the structure shown. Active and inactive are the calls of the source. The calls are words filed in the database; no cut-off is given here.

One may read the IC50 as the midpoint of a concentration-inhibition curve. The Tmax is the time at which the peak concentration occurs. By solubility is commonly meant the concentration that dissolves in the medium under given conditions. As a reminder, the bioavailability is dose-corrected exposure relative to a reference, in per cent. The term half-life denotes the time in which the quantity being followed falls by half. The low end stands for rapid decline, the high end for slow decline. What is called logD is the decadic logarithm of the distribution of all forms, ionised or not, between an organic phase and buffer at a given pH. A high value points to a more lipophilic compound.

Rho-associated protein kinase 2, sequence (O75116 whole entry, the tested form may be a part): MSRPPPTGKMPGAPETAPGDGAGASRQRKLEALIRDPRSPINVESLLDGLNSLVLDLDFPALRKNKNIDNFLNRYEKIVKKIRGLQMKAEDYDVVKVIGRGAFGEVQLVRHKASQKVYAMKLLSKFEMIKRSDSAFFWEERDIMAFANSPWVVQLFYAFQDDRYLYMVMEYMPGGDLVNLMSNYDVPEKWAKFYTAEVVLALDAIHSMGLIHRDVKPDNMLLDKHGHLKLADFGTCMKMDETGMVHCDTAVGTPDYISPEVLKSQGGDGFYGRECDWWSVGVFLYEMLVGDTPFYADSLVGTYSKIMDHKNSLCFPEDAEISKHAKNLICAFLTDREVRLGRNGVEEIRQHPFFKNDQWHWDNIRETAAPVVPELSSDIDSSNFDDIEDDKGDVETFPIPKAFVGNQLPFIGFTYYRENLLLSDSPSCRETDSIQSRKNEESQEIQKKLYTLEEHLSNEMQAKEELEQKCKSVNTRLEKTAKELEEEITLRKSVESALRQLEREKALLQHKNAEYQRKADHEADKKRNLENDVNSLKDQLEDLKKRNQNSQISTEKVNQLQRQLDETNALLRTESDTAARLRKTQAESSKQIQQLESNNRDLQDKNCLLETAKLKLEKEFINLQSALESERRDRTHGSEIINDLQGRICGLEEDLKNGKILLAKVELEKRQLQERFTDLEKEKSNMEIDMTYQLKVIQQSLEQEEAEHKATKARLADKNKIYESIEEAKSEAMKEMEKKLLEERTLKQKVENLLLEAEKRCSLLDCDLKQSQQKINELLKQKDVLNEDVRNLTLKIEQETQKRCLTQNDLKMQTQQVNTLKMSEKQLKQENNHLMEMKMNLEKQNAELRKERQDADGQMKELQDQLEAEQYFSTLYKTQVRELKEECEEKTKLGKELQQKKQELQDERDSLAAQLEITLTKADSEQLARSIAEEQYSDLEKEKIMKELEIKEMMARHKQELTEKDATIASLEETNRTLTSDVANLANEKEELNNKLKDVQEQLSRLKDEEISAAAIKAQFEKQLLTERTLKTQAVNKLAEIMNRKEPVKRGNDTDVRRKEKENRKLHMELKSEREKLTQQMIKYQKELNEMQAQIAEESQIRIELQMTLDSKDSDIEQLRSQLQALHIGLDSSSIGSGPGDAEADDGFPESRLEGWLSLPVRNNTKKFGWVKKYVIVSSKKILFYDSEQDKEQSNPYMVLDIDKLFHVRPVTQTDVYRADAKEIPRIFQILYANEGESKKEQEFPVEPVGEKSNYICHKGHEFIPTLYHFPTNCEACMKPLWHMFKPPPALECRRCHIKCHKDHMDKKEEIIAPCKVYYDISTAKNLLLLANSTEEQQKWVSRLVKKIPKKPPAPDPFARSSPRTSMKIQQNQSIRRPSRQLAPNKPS

Take `O=C(CCCCCCNC(=O)c1cc2cc(-c3cn[nH]c3)ccc2s1)NO`: the half-inhibitory concentration (IC50) is 255 nM in data set [1], 370 nM with MDA-MB-231 [4], above 10000 nM in [14] and above 10000 nM against Histone deacetylase 11. The result in the data set on MDA-MB-231 [2], with 4T1 [3], with 4T1 [9] and with MDA-MB-231 [15] was Active. Further, the time to peak (Tmax) turned out to be 4.8 min in data set [5] and 1.8 min in data set [17]. The Activity entry in data set [6], in data set [7] and in data set [12] was “Non-Toxic” each time. This compound also showed a solubility in data set [8] of 0.695 µg/mL (≈ 1.8 µM). Also, the bioavailability in data set [10] was found to be 0.13%. This compound showed a half-life in data set [11] of 732 min. Besides, the logD in data set [13] was determined as 3.29. For the same compound, the inhibition in vivo at 25 mg/kg in the data set on 4T1 [16] was 45%.

Values taken from ChEMBL document CHEMBL6127128, “Discovery of the First-in-Class Dual-Target ROCK/HDAC Inhibitor with Potent Antitumor Efficacy in Vivo That Trigger Antitumor Immunity” (J Med Chem, 2024).
